Values of other authors as cited in patent publication US6534676B2, “Method to treat chronic heart failure and/or elevated cholesterol levels using 3,5-diiodothyropropionic acid and method to prepare same” (The Arizona Board of Regents on Behalf of the University of …, priority 2001, dated 2003).

Legend:
[1] = short-term intravenous, patients with advanced congestive failure; cited from earlier work
[2] = background statement; cited from earlier work

SMILES	cardiac output and arterial vascular resistance [1]	half-life [2]
N[C@@H](Cc1cc(I)c(Oc2ccc(O)c(I)c2)c(I)c1)C(=O)O [T3, 3′,3,5-L-triiodothyrone]	improve cardiac output and decrease arterial vascular resistance	two days or less
NC(Cc1cc(I)c(Oc2cc(I)c(O)c(I)c2)c(I)c1)C(=O)O [Thyroxine, 3,5,3′5′-L-thyronine]	–	140 to 170 h
